Where a name gives a salt, the structure may show the parent alone.
System: behaviors of compound-treated mice
Experiment: Neuropharmacological Assay (SmartCube)
Format: in vivo
Settings: for minimal effective dose: Mus musculus, ip, 0.25 h, dose having 50% or more total activity in SmartCube, i.p., read-out: MED (minimal effective dose); for AD: ADHD (probability that activity matches class) / AG: analgesic (probability that activity matches class) / AX: anxiolytic (probability that activity matches class) / CE: cognitive enhancer (probability that activity matches class) / DP: anti-depressant (probability that activity matches class) / MS: mood stabilizer (probability that activity matches class) / PS: anti-psychotic (probability that activity matches class) / SD: sedative hypnotic (probability that activity matches class) / UN: uncharacterized CNS activity (probability that activity matches class): i.p. 15 min before behavioral test, most efficacious dose(s) of 3 doses
Method in brief: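 Mice dosed i.p. 15 min before testing, with compound in N-methyl-2-pyrrolidone/PEG/propylene glycol, were video-recorded and algorithmically compared with reference-drug behavioral signatures. This gave class-match probabilities (antidepressant, anxiolytic, etc.) at the most efficacious of 3 doses. MED was defined as the dose with ≥50% total activity, usually tested across 0.3–30 mpk.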

| Compound | minimal effective dose | AD: ADHD (probability that activity matches class) | AG: analgesic (probability that activity matches class) | AX: anxiolytic (probability that activity matches class) | CE: cognitive enhancer (probability that activity matches class) | DP: anti-depressant (probability that activity matches class) | MS: mood stabilizer (probability that activity matches class) | PS: anti-psychotic (probability that activity matches class) | SD: sedative hypnotic (probability that activity matches class) | UN: uncharacterized CNS activity (probability that activity matches class) |
| --- | --- | --- | --- | --- | --- | --- | --- | --- | --- | --- |
| CNC[C@@H]1OCCc2cc(-c3cccnc3)ccc21 [Compound 5, (R)-N-Methyl(6-(pyridin-3-yl)isochroman-1-yl)methanamine bis-hydrochloride] | 3 to 10 mg/kg | + (LOQ ≤ + <5%) | ++ (5% ≤ ++ <25%) | ++ (5% ≤ ++ <25%) | + (LOQ ≤ + <5%) | ++++ (50% ≤ ++++) | + (LOQ ≤ + <5%) | ++ (5% ≤ ++ <25%) | + (LOQ ≤ + <5%) | + (LOQ ≤ + <5%) |
| CNC[C@H]1OCCc2c(-c3cncs3)cccc21 (single isomer, unassigned) [Compound 69, hydrochloride salt] | ≤ 3 mg/kg | + (LOQ ≤ + <5%) | + (LOQ ≤ + <5%) | ++ (5% ≤ ++ <25%) | + (LOQ ≤ + <5%) | ++++ (50% ≤ ++++) | + (LOQ ≤ + <5%) | + (LOQ ≤ + <5%) | ++ (5% ≤ ++ <25%) | + (LOQ ≤ + <5%) |
| CNC[C@@H]1OCCc2c(-c3cnccn3)cccc21 (single isomer, unassigned) [Compound 80] | 3 to 10 mg/kg | + (LOQ ≤ + <5%) | + (LOQ ≤ + <5%) | ++ (5% ≤ ++ <25%) | + (LOQ ≤ + <5%) | + (LOQ ≤ + <5%) | + (LOQ ≤ + <5%) | + (LOQ ≤ + <5%) | + (LOQ ≤ + <5%) | + (LOQ ≤ + <5%) |
| NC[C@@H]1OCCc2c(-c3ccncn3)cccc21 (single isomer, unassigned) [Compound 74, hydrochloride salt] | > 30 mg/kg | + (LOQ ≤ + <5%) | + (LOQ ≤ + <5%) | + (LOQ ≤ + <5%) | + (LOQ ≤ + <5%) | ++ (5% ≤ ++ <25%) | + (LOQ ≤ + <5%) | + (LOQ ≤ + <5%) | + (LOQ ≤ + <5%) | + (LOQ ≤ + <5%) |
| CNC[C@H]1OCCCc2c(-c3ccncc3)cccc21 (single isomer, unassigned) [Compound 149] | ≤ 3 mg/kg | ++ (5% ≤ ++ <25%) | + (LOQ ≤ + <5%) | ++ (5% ≤ ++ <25%) | + (LOQ ≤ + <5%) | ++++ (50% ≤ ++++) | + (LOQ ≤ + <5%) | + (LOQ ≤ + <5%) | + (LOQ ≤ + <5%) | ++ (5% ≤ ++ <25%) |
| CNCC1OCCc2c(-c3cncs3)cccc21 (stereo not shown) [Compound 52, N-Methyl-1-(5-(thiazol-5-yl)isochroman-1-yl)methanamine hydrochloride] | 3 to 10 mg/kg | + (LOQ ≤ + <5%) | + (LOQ ≤ + <5%) | + (LOQ ≤ + <5%) | + (LOQ ≤ + <5%) | ++++ (50% ≤ ++++) | + (LOQ ≤ + <5%) | + (LOQ ≤ + <5%) | + (LOQ ≤ + <5%) | ++ (5% ≤ ++ <25%) |
| NC[C@@H]1OCCc2c(-c3ccnnc3)cccc21 (single isomer, unassigned) [Compound 78, hydrochloride salt] | 3 to 10 mg/kg | + (LOQ ≤ + <5%) | + (LOQ ≤ + <5%) | ++ (5% ≤ ++ <25%) | + (LOQ ≤ + <5%) | + (LOQ ≤ + <5%) | + (LOQ ≤ + <5%) | + (LOQ ≤ + <5%) | + (LOQ ≤ + <5%) | + (LOQ ≤ + <5%) |
| CNCC1OCCc2c(-c3cnccn3)cccc21 (stereo not shown) [Compound 56, N-Methyl-1-(5-(pyrazin-2-yl)isochroman-1-yl)methanamine hydrochloride salt] | 3 to 10 mg/kg | ++ (5% ≤ ++ <25%) | + (LOQ ≤ + <5%) | ++ (5% ≤ ++ <25%) | + (LOQ ≤ + <5%) | ++++ (50% ≤ ++++) | + (LOQ ≤ + <5%) | + (LOQ ≤ + <5%) | + (LOQ ≤ + <5%) | + (LOQ ≤ + <5%) |
| CNC[C@H]1OCCc2c(-c3cnco3)cccc21 (single isomer, unassigned) [Compound 97, hydrochloride salt] | ≤ 3 mg/kg | + (LOQ ≤ + <5%) | ++ (5% ≤ ++ <25%) | ++ (5% ≤ ++ <25%) | + (LOQ ≤ + <5%) | ++ (5% ≤ ++ <25%) | + (LOQ ≤ + <5%) | ++ (5% ≤ ++ <25%) | ++++ (50% ≤ ++++) | ++ (5% ≤ ++ <25%) |
| NC[C@@H]1OCCc2c(-c3cnoc3)cccc21 (single isomer, unassigned) [Compound 86, hydrochloride salt] | 3 to 10 mg/kg | + (LOQ ≤ + <5%) | + (LOQ ≤ + <5%) | ++ (5% ≤ ++ <25%) | ++ (5% ≤ ++ <25%) | ++ (5% ≤ ++ <25%) | + (LOQ ≤ + <5%) | ++ (5% ≤ ++ <25%) | + (LOQ ≤ + <5%) | +++ (25% ≤ +++ <50%) |
| CNC[C@H]1OCCc2ccc(-c3cccnc3)cc21 [Compound 4, (S)-N-methyl-1-(7-(pyridin-3-yl)isochroman-1-yl)methanamine dihydrochloride] | 3 to 10 mg/kg | + (LOQ ≤ + <5%) | + (LOQ ≤ + <5%) | ++ (5% ≤ ++ <25%) | + (LOQ ≤ + <5%) | ++ (5% ≤ ++ <25%) | + (LOQ ≤ + <5%) | +++ (25% ≤ +++ <50%) | + (LOQ ≤ + <5%) | ++ (5% ≤ ++ <25%) |
| NC[C@H]1OCCc2c(-c3c[nH]cn3)cccc21 (single isomer, unassigned) [Compound 113, hydrochloride salt] | 3 to 10 mg/kg | + (LOQ ≤ + <5%) | ++ (5% ≤ ++ <25%) | ++ (5% ≤ ++ <25%) | + (LOQ ≤ + <5%) | ++ (5% ≤ ++ <25%) | + (LOQ ≤ + <5%) | +++ (25% ≤ +++ <50%) | + (LOQ ≤ + <5%) | +++ (25% ≤ +++ <50%) |
| NCC1OCCc2c(-c3cnccn3)cccc21 (stereo not shown) [Compound 63, (5-(Pyrazin-2-yl)isochroman-1-yl)methanamine hydrochloride salt] | 3 to 10 mg/kg | ++ (5% ≤ ++ <25%) | + (LOQ ≤ + <5%) | ++ (5% ≤ ++ <25%) | + (LOQ ≤ + <5%) | ++++ (50% ≤ ++++) | + (LOQ ≤ + <5%) | + (LOQ ≤ + <5%) | + (LOQ ≤ + <5%) | + (LOQ ≤ + <5%) |

Source: patent publication US10780074B2, “Compounds and uses thereof” (Sunovion Pharmaceuticals Inc., priority 2017, dated 2020)
